Test results taken from paper PMC9525106, “Intestinal permeability of agaro-oligosaccharides: Transport across Caco-2 cell monolayers and pharmacokinetics in rats” (Frontiers in Nutrition, 2022).
Like-named read-outs stand apart in the source and are kept apart here.

Experiments:
[1] = set-up: method as in PMID 20378994; details: cited from earlier work
[2] = system: peritoneal macrophages; set-up: method as in PMID 22791164; details: oral administration to mice, 3% AOSs containing water for 3 weeks; cited from earlier work
[3] = rat, in vivo, po
Procedure: To prepare the standard curve samples of AOSs, the AOSs were labeled with ABEE using an ABEE labeling kit (J-Chemical, Tokyo, Japan) according to the method developed by Yasuno et al. ([11]). The reaction was performed according to the instructions provided by the manufacturer. Briefly, 40 μl of the ABEE reagent solution was added to 10 μl of the solution of AOSs and the mixture was vortexed and incubated at 80°C for 1 h. After cooling to 15–20°C, 200 μl of DW and an equal volume of chloroform were added, and the mixture was then vortexed and centrifuged for 1 min. The upper layer was filtered through a polytetrafluoroethylene membrane (4 mm diameter, 0.45-μm pore size; Membrane Solutions Limited, Plano, TX, USA) and subjected to LC-MS.
For the HPLC measurements, an LC-20AD pump (Shimadzu) fitted with a DGU-20A 5R degassing unit (Shimadzu) was used. The analytes were injected using a SIL-20AC autosampler (Shimadzu). In addition, a CTO-20AC column oven (Shimadzu) was used, and entire equipment was controlled using a CBM-20A unit (Shimadzu). The samples were separated on a Shim-pack VP-ODS (150 × 2.0 mm, 4.6 μm; Shimadzu) combined with a Shim-pack GVP-ODS guard column (2.0 mm i.d. × 5 mm, 4.6 μm; Shimadzu). The mobile phase consisted of acetic acid (0.1%) in water (A) and acetic acid (0.1%) in acetonitrile (B). The gradient conditions were as follows: 0–30 min, 9%−13% B; 30–45 min, 80% B; 45–60 min, 9% B. The flow rate was 0.2 ml/min. The column oven temperature was set at 60°C, and the autosampler temperature was 10°C.
The detection was performed using an LCMS-2020 (Shimadzu) ESI-MS device. The analytes were identified and quantified by selected ion monitoring in the positive-ion mode. The MS conditions were as follows: interface temperature, 350°C; desolvation line (DL) temperature, 250°C; heat block temperature, 200°C; nebulizer gas flow, 1.5 L/min; drying gas flow, 15 L/min; interface voltage, 4.5 kV; DL voltage, 0 kV.
Fifteen female Sprague–Dawley rats, aged 7 weeks, were purchased from Charles River Laboratories Japan (Kanagawa, Japan). The rats were acclimatized to standard laboratory conditions (20–25°C, 40%−70% humidity, and 12 h light/dark cycle) for 1 week.
After a fasting period of 12 h, 2 ml of phosphate-buffered saline (pH 7.4) containing 0%, 10%, or 50% AOSs was orally administered to five rats from each group (220–250 g body weight) using feeding gavages. The AOSs comprised 30.2, 29.1, and 31.6% of Abi, Ate, and Ahe, respectively. Blood (100 μl) was collected before and after 1, 2, 4, 8, and 24 h of oral administration from the tail vein using 10,000 U heparin-coated syringes (1 ml) with a 26G × 1/2 ” needle. The blood samples were centrifuged at 1,000 g for 10 min, and the supernatants were collected. Acetonitrile was added to the plasma samples at a final concentration of 60%. The samples were vigorously vortexed and centrifuged at 6,000 g for 5 min; the supernatants were collected and evaporated to dryness. Subsequently, the dried samples were dissolved in 10 μl of DW and subjected to ABEE derivatization before LC-MS analysis. The area under the curve (AUC) of plasma concentration was calculated using the trapezoid formula.

[4] = system: Caco-2 cell monolayers; assay type: in vitro ADME, human
Procedure: The correlation between TEER and permeation rate was examined to confirm the occurrence of Abi and Ahe transport via the paracellular pathway by using the LY fluorescent stain for comparison. Thus, Abi, Ahe, and LY were added to the apical chamber with or without cytochalasin B. The basal chamber solution was collected, and the TEER was measured every 1 h for 3 h, thereby quantifying Abi, Ahe, and LY in the basal chamber. The TEER and quantified values are plotted as a scatter plot in Figure 6.

[5] = system: Caco-2 cell monolayers; assay type: in vitro ADME, human; remark: listed apart in the source
Procedure: (§1) Caco-2 cells were purchased from DS Pharma (Osaka, Japan). The cells (passage 20–27) were cultured in E-MEM containing 10% (v/v) FBS, 1% (v/v) MEM-NEAA, and 1% (v/v) PS. The cells were incubated at 37°C in an atmosphere of 5% CO2 under 95% relative humidity. When the cells reached 80–90% confluence, they were passaged at a density of 1.0 × 10^5 cells onto a 12-well Transwell Permeable Support (0.4-μm pore polyester membrane insert, Corning, NY, USA). The cells were cultured for 19–21 days to obtain a monolayer. The culture medium (0.6 ml in the apical side and 1.5 ml in the basolateral side) was replaced every 1–2 days. The integrity of the Caco-2 cell monolayer was evaluated by measuring transepithelial electrical resistance (TEER) using a Millicell-ERS-2 system (Merck, Darmstadt, Germany). Only cell monolayers with final TEER values above 700 Ω · cm^2, indicative of high barrier integrity, were used for the transport assays.
(§2) Caco-2 cells monolayers were preincubated in HBSS for 30 min at 37°C. Subsequently, 0.6 ml of 0.5 mg/ml Abi and Ahe and 1.5 ml of HBSS to the apical and basolateral sides, respectively. After incubation for 0, 1, 2, and 3 h, the supernatant was collected from the basolateral side. To identify the transport mechanisms, Caco-2 cell monolayers were preincubated with sodium azide (1 mM), colchicine (1 mM), or cytochalasin B (5 μg/ml) dissolved in HBSS with 0.1% DMSO for 30 min, followed by the incubation of 0.5 mg/ml Abi and Ahe for 2 h. To remove salt, the collected supernatant was applied to the graphitized carbon solid-phase extraction (GC-SPE) using InertSep GC (200 mg/3 ml) (GL Sciences Inc., Tokyo, Japan), according to the method described by Ninonuevo et al. ([12]). The SPE cartridge was first equilibrated with 6 ml of 80% acetonitrile in 0.1% acetic acid (v/v), followed by 3 ml of DW. The basal solution was dissolved in DW to 3 ml and loaded onto the cartridge. The salts were removed by washing with 6 ml of DW, and Abi or Ahe was eluted with 3 ml of 20% acetonitrile. After ABEE derivatization, the collected solution was evaporated to dryness and subjected to LC-MS. The apparent permeability coefficients (Papp) were calculated ([13]) as Papp = (dQ/dt) × (1/AC0), where dQ/dt is the permeation rate (μg/s), A is the area of the monolayer of Caco-2 cells (cm^2), and C0 is the initial concentration of Abi or Ahe in the apical chamber (μg/ml).

[6] = system: Caco-2 cell monolayers; assay: Transepithelial permeation route analysis with transport inhibitors in Caco-2 cell monolayers; details: for effect of sodium azide on transport rate: 1 mM sodium azide preincubated 30 min, then 2 h incubation; for effect of cytochalasin B on transepithelial permeability: Caco-2; for effect on TEER value of Caco-2 cell monolayers: inhibitor in apical chamber (sodium azide 1 mM, colchicine 1 mM, cytochalasin B 5 μg/ml), TEER after 2 h
Procedure: as §1, §2
The effects of various inhibitors on the transepithelial absorption through Caco-2 cell monolayers were examined to identify the transport routes of Abi and Ahe. We used 1 mM sodium azide and 1 mM colchicine as an electron-transport-chain inhibitor and a transcytosis inhibitor, respectively, to determine whether an energy-dependent pathway is involved. […] Next, we used cytochalasin B as a tight junction disruptor to investigate the involvement of the paracellular pathway in the transepithelial permeation of Abi and Ahe. Cytochalasin B increases the paracellular permeability by affecting the tight junction structure through the myosin light chain kinase activation ([14]).

Compound	AUC ([3]; 1 g/kg) [ng·h/mL]	Cmax ([3]; 1 g/kg) [ng/mL]	Tmax ([3]; 1 g/kg) [h]	AUC ([3]; 5 g/kg) [ng·h/mL]	Cmax ([3]; 5 g/kg) [ng/mL]	Tmax ([3]; 5 g/kg) [h]	Pearson correlation coefficient value between TEER and amount permeated [4]	effect on TEER value of Caco-2 cell monolayers [6]	other results
OC[C@H]1O[C@@H](O)[C@H](O)[C@@H](O[C@@H]2O[C@H]3CO[C@@H]([C@@H]2O)[C@@H]3O[C@@H]2O[C@H](CO)[C@H](O)[C@H](O[C@@H]3O[C@H]4CO[C@@H]([C@@H]3O)[C@@H]4O[C@@H]3O[C@H](CO)[C@H](O)[C@H](O[C@@H]4O[C@H]5CO[C@@H]([C@@H]4O)[C@@H]5O)[C@H]3O)[C@H]2O)[C@H]1O [neoagarohexaose]	–	–	–	–	–	–	–	–	anti-inflammatory activity [1]: no anti-inflammatory activity
OC[C@H]1O[C@@H](O[C@H]2[C@H]3OC[C@@H]2OC(O)[C@H]3O)[C@H](O)[C@@H](O)[C@H]1O (mixture of isomers) [Abi, agarobiose]	620 ± 180	76.4 ± 36.7	4	2560 ± 810	439.8 ± 182.6	4	−0.832	–	nitric oxide (NO) production on stimulated peritoneal macrophages [2]: suppression; Papp [5]: 0.41 ± 0.03 10^−6 cm/s; percentage permeated [5]: 0.27 ± 0.02 %/h; effect of sodium azide on transport rate [6]: did not have any significant effect; effect of cytochalasin B on transepithelial permeability [6]: increased
C=C1[C@@H](C)[C@H]2[C@H](Cc3ccccc3)NC(=O)[C@]23OC(=O)/C=C/[C@H](O)CCC[C@@H](C)C/C=C/[C@H]3[C@@H]1O [cytochalasin B, reference compound]	–	–	–	–	–	–	–	significantly decreased	–
Lucifer yellow CH dilithium salt [LY, reference compound]	–	–	–	–	–	–	−0.779	–	–
[N-]=[N+]=[N-].[Na+] [sodium azide, reference compound]	–	–	–	–	–	–	–	did not have any significant effect	–
OC[C@H]1O[C@@H](O[C@H]2[C@H]3OC[C@@H]2O[C@@H](O[C@H]2[C@@H](O)[C@@H](CO)O[C@@H](O[C@H]4[C@H]5OC[C@@H]4O[C@@H](O[C@H]4[C@@H](O)[C@@H](CO)O[C@@H](O[C@H]6[C@H]7OC[C@@H]6OC(O)[C@H]7O)[C@@H]4O)[C@H]5O)[C@@H]2O)[C@H]3O)[C@H](O)[C@@H](O)[C@H]1O (mixture of isomers) [Ahe, agarohexaose]	290 ± 270	42.1 ± 37.1	4	460 ± 250	107.8 ± 55.0	4	−0.814	–	Papp [5]: 0.21 ± 0.01 10^−6 cm/s; percentage permeated [5]: 0.14 ± 0.01 %/h; effect of sodium azide on transport rate [6]: did not have any significant effect; effect of cytochalasin B on transepithelial permeability [6]: increased
COc1cc2c(c(OC)c1OC)-c1ccc(OC)c(=O)cc1[C@@H](NC(C)=O)CC2 [colchicine, reference compound]	–	–	–	–	–	–	–	did not have any significant effect	–
OC[C@H]1O[C@@H](O[C@H]2[C@H]3OC[C@@H]2O[C@@H](O[C@H]2[C@@H](O)[C@@H](CO)O[C@@H](O[C@H]4[C@H]5OC[C@@H]4O[C@@H](O)[C@H]5O)[C@@H]2O)[C@H]3O)[C@H](O)[C@@H](O)[C@H]1O [Ate, agarotetraose]	390 ± 170	58.9 ± 37.6	4	1390 ± 450	239.5 ± 98.2	4	–	–	nitric oxide (NO) production on stimulated peritoneal macrophages [2]: suppression
